This is an account of results in patent US12508323B2, “Method of treatment of colorectal, breast and lung cancer with metal containing immune agonist complexes” (HANGZHOU XINGAO BIOTECHNOLOGY CO., LTD., priority 2020, dated 2025).

Type in all cases: in vivo
The subject of test [1] is APP/PS1 transgenic AD model mice. In words: Morris water maze test in AD mice. The note with it: 10 mg/kg i.p. once a day for 60 days, space exploration test. The method, then:
APP/PS1 transgenic AD model mice were purchased from Southern Model Biotechnology Co., Ltd., which were 4 months in age, and 24-26 g in weight. […]
A circular pool was designed, which was 1 m in diameter, 50 cm in height, 30 cm deep, and white bottom. […] After the mice found the platform or could not find the platform within 90 seconds (the latency period was recorded as 90 seconds), they were guided to the platform by the experimenter and rested on the platform for 10 seconds before the next trial.
24 h after the end of the positioning navigation test, the platform was removed. Then the mice were put into the water from the third quadrant, and the swimming paths of the mice were recorded within 180 s. The residence time of the mice in the target quadrant (third quadrant) and the number of times they crossed the location of the original platform were recorded to observe the spatial orientation ability of the mice. […]

For the next test, the system named is amyloid plaques. In words: Thioflavin S staining of brain amyloid plaques in AD mice. The note with it: 10 mg/kg i.p., 60 days of administration. The method, then:
Seven groups of AD mice in the above examples were tested in view of reduction of amyloid plaques in the brains of AD mice after 60 days of administration. The experiment was a thioflavin S staining experiment, and the experimental procedures were described below. 60 days after drug administration, brain tissue of mice was taken, fixed, embedded with paraffin, sectioned, de-waxed with xylene, dehydrated with ethanol gradient, and rinsed with TBS solution three times. After that, 0.3% thioflavin S (dissolved in 50% ethanol) was dropped on the tissue followed by incubation for 10 min at room temperature, rinsing with 50% ethanol three times, rinsing with TBS solution, drying in the shade, and sealing. Then the issue was examined by laser confocal microscopy (Leica, Germany) to detect the changes in the amount of amyloid plaque deposition in the brain of AD mice.

In test [2] the test system is pro-inflammatory factors IL-1β and TNF-α. The test can be described thus: Pro-inflammatory factors in brain tissues of AD mice (ELISA). The following applies: 10 mg/kg i.p., two months of administration. The method, then:
To explore the effect of the above immune agonists and complexes thereof on neuroinflammation in the brain of AD mice, the content of pro-inflammatory factors in brain tissues of AD mice was determined by ELISA method. The content of pro-inflammatory factors IL-1β and TNF-α in brain tissues of AD mice were measured respectively.
Fresh brain tissues of mice were taken and weighed, and the content of inflammatory factors IL-1β and TNF-α in brain tissues was determined by using the Cloud Clone ELISA kit. […] Therefore, the immune agonist-brain-targeted nanocarrier complexes were able to eliminate the chronic neuroinflammation present in the course of AD in mice.

Regarding `Nc1nc(=O)c2ncn(C3OC4COP(=O)(O)OC5C(COP(=O)(O)OC3C4O)OC(n3cnc4c(N)ncnc43)C5O)c2[nH]1` (stereo not shown) [cGAMP, 2′3′-cGAMP], the “Percentage of time to cross the third quadrant platform in AD mice (%)” value in test [1] stood at 0.55 ± 0.10%. Moreover, in the test on amyloid plaques, the “Average count points of fluorescence intensity of amyloid plaques in brain tissues of AD mice (field of view area)” value is listed as 1800 ± 160. Also, in test [2], the “IL-1β” value came out at 46.18 ± 0.09 pg/mg and the “TNF-α” value was determined as 35.52 ± 0.35 pg/mg.
